Measured values from US20090156518A1, “STABLE PHARMACEUTICAL COMPOSITION COMPRISING BETA-LACTAM ANTIBIOTIC AND BUFFER” (priority 2006, published 2009).
Marks after values point to notes of the source that are not given here.

Assay: amounts of β-lactam antibiotic, β-lactamase inhibitor (C18 reverse-phase LC, UV-VIS) and aminoglycoside (HPLC-ELSD) in solution over time
Type: physicochemical

## CC1(C)[C@H](C(=O)O)N2C(=O)C[C@H]2S1(=O)=O [Sulbactam sodium]
Example 4: cefoperazone sodium 4 g, sulbactam sodium 0.5 g, gentamicin 80 mg, citrate pH 6.75, 200 mL water, room temperature, Time 0 h
  amount of component as percentage with respect to the amount at the initial time: 101.4%
Example 4: cefoperazone sodium 4 g, sulbactam sodium 0.5 g, gentamicin 80 mg, citrate pH 6.75, 200 mL water, room temperature, Time 1 h
  amount of component as percentage with respect to the amount at the initial time: 101.4%
Example 4: cefoperazone sodium 4 g, sulbactam sodium 0.5 g, gentamicin 80 mg, citrate pH 6.75, 200 mL water, room temperature, Time 2 h
  amount of component as percentage with respect to the amount at the initial time: 101.5%
Example 4: cefoperazone sodium 4 g, sulbactam sodium 0.5 g, gentamicin 80 mg, citrate pH 6.75, 200 mL water, room temperature, Time 4 h
  amount of component as percentage with respect to the amount at the initial time: 109.7%
Example 4: cefoperazone sodium 4 g, sulbactam sodium 0.5 g, gentamicin 80 mg, citrate pH 6.75, 200 mL water, room temperature, Time 6 h
  amount of component as percentage with respect to the amount at the initial time: 103.2%
Example 5: freeze-dried cefoperazone sodium 4 g, sulbactam sodium 0.5 g, citrate pH 6.75, + amikacin sulfate 500 mg, 7 days 0° C., dissolved in 100 mL water, Time 0 h
  amount of component as percentage with respect to the amount at the initial time: 101.4%
Example 5: freeze-dried cefoperazone sodium 4 g, sulbactam sodium 0.5 g, citrate pH 6.75, + amikacin sulfate 500 mg, 7 days 0° C., dissolved in 100 mL water, Time 1 h
  amount of component as percentage with respect to the amount at the initial time: 101.4%
Example 5: freeze-dried cefoperazone sodium 4 g, sulbactam sodium 0.5 g, citrate pH 6.75, + amikacin sulfate 500 mg, 7 days 0° C., dissolved in 100 mL water, Time 2 h
  amount of component as percentage with respect to the amount at the initial time: 101.5%
Example 5: freeze-dried cefoperazone sodium 4 g, sulbactam sodium 0.5 g, citrate pH 6.75, + amikacin sulfate 500 mg, 7 days 0° C., dissolved in 100 mL water, Time 4 h
  amount of component as percentage with respect to the amount at the initial time: 109.7%
Example 5: freeze-dried cefoperazone sodium 4 g, sulbactam sodium 0.5 g, citrate pH 6.75, + amikacin sulfate 500 mg, 7 days 0° C., dissolved in 100 mL water, Time 6 h
  amount of component as percentage with respect to the amount at the initial time: 103.2%
Example 6: freeze-dried cefoperazone sodium 4 g, sulbactam sodium 1 g, citrate pH 6.75, + etimicin sulfate 200 mg, 7 days 0° C., dissolved in 100 mL water, Time 0 h
  amount of component as percentage with respect to the amount at the initial time: 99.62%
Example 6: freeze-dried cefoperazone sodium 4 g, sulbactam sodium 1 g, citrate pH 6.75, + etimicin sulfate 200 mg, 7 days 0° C., dissolved in 100 mL water, Time 1 h
  amount of component as percentage with respect to the amount at the initial time: 100.4%
Example 6: freeze-dried cefoperazone sodium 4 g, sulbactam sodium 1 g, citrate pH 6.75, + etimicin sulfate 200 mg, 7 days 0° C., dissolved in 100 mL water, Time 2 h
  amount of component as percentage with respect to the amount at the initial time: 100.2%
Example 6: freeze-dried cefoperazone sodium 4 g, sulbactam sodium 1 g, citrate pH 6.75, + etimicin sulfate 200 mg, 7 days 0° C., dissolved in 100 mL water, Time 4 h
  amount of component as percentage with respect to the amount at the initial time: 100.2%
Example 7: ceftriaxone sodium 4 g, sulbactam sodium 1 g, gentamicin sulfate 80 mg, citrate pH 6.75, 200 mL water, room temperature (22° C.), Time 0 h
  amount of component as percentage with respect to the amount at the initial time: 96.84%
Example 7: ceftriaxone sodium 4 g, sulbactam sodium 1 g, gentamicin sulfate 80 mg, citrate pH 6.75, 200 mL water, room temperature (22° C.), Time 1 h
  amount of component as percentage with respect to the amount at the initial time: 94.43%
Example 7: ceftriaxone sodium 4 g, sulbactam sodium 1 g, gentamicin sulfate 80 mg, citrate pH 6.75, 200 mL water, room temperature (22° C.), Time 2 h
  amount of component as percentage with respect to the amount at the initial time: 93.35%
Example 7: ceftriaxone sodium 4 g, sulbactam sodium 1 g, gentamicin sulfate 80 mg, citrate pH 6.75, 200 mL water, room temperature (22° C.), Time 4 h
  amount of component as percentage with respect to the amount at the initial time: 93.23%
Example 7: ceftriaxone sodium 4 g, sulbactam sodium 1 g, gentamicin sulfate 80 mg, citrate pH 6.75, 200 mL water, room temperature (22° C.), Time 6 h
  amount of component as percentage with respect to the amount at the initial time: 92.13%
Example 7: ceftriaxone sodium 4 g, sulbactam sodium 1 g, gentamicin sulfate 80 mg, citrate pH 6.75, 200 mL water, room temperature (22° C.), Time 8 h
  amount of component as percentage with respect to the amount at the initial time: 93.38%
Example 10: mezlocillin sodium 2 g, sulbactam sodium 0.5 g, etimicin sulfate 200 mg, citrate pH 6.5, 200 mL water, room temperature, Time 0 h
  amount of component as percentage with respect to the amount at the initial time: 98.07%
Example 10: mezlocillin sodium 2 g, sulbactam sodium 0.5 g, etimicin sulfate 200 mg, citrate pH 6.5, 200 mL water, room temperature, Time 1 h
  amount of component as percentage with respect to the amount at the initial time: 98.13%
Example 10: mezlocillin sodium 2 g, sulbactam sodium 0.5 g, etimicin sulfate 200 mg, citrate pH 6.5, 200 mL water, room temperature, Time 2 h
  amount of component as percentage with respect to the amount at the initial time: 72.96%
Example 10: mezlocillin sodium 2 g, sulbactam sodium 0.5 g, etimicin sulfate 200 mg, citrate pH 6.5, 200 mL water, room temperature, Time 4 h
  amount of component as percentage with respect to the amount at the initial time: 95.16%
Example 10: mezlocillin sodium 2 g, sulbactam sodium 0.5 g, etimicin sulfate 200 mg, citrate pH 6.5, 200 mL water, room temperature, Time 6 h
  amount of component as percentage with respect to the amount at the initial time: 99.65%
Example 10: mezlocillin sodium 2 g, sulbactam sodium 0.5 g, etimicin sulfate 200 mg, citrate pH 6.5, 200 mL water, room temperature, Time 8 h
  amount of component as percentage with respect to the amount at the initial time: 104.9%
Example 11: freeze-dried mezlocillin sodium, sulbactam sodium, citrate pH 6.5, 7 days 0° C., in 100 mL 5% fructose + etimicin sulfate 200 mg, Time 0 h
  amount of component as percentage with respect to the amount at the initial time: 114.3%
Example 11: freeze-dried mezlocillin sodium, sulbactam sodium, citrate pH 6.5, 7 days 0° C., in 100 mL 5% fructose + etimicin sulfate 200 mg, Time 1 h
  amount of component as percentage with respect to the amount at the initial time: 95.83%
Example 11: freeze-dried mezlocillin sodium, sulbactam sodium, citrate pH 6.5, 7 days 0° C., in 100 mL 5% fructose + etimicin sulfate 200 mg, Time 2 h
  amount of component as percentage with respect to the amount at the initial time: 93.75%
Example 11: freeze-dried mezlocillin sodium, sulbactam sodium, citrate pH 6.5, 7 days 0° C., in 100 mL 5% fructose + etimicin sulfate 200 mg, Time 4 h
  amount of component as percentage with respect to the amount at the initial time: 93.78%
Example 11: freeze-dried mezlocillin sodium, sulbactam sodium, citrate pH 6.5, 7 days 0° C., in 100 mL 5% fructose + etimicin sulfate 200 mg, Time 6 h
  amount of component as percentage with respect to the amount at the initial time: 95.65%
Example 11: freeze-dried mezlocillin sodium, sulbactam sodium, citrate pH 6.5, 7 days 0° C., in 100 mL 5% fructose + etimicin sulfate 200 mg, Time 8 h
  amount of component as percentage with respect to the amount at the initial time: 101.0%
Example 14: freeze-dried cefoperazone sodium 4 g, sulbactam sodium 2 g, citrate pH 6.75, 7 days 0° C., in 100 mL water, 10 mL + gentamicin sulfate 16 mg, room temperature, Time 0 h
  amount of component as percentage with respect to the amount at the initial time: 92.44%
Example 14: freeze-dried cefoperazone sodium 4 g, sulbactam sodium 2 g, citrate pH 6.75, 7 days 0° C., in 100 mL water, 10 mL + gentamicin sulfate 16 mg, room temperature, Time 1 h
  amount of component as percentage with respect to the amount at the initial time: 91.27%
Example 14: freeze-dried cefoperazone sodium 4 g, sulbactam sodium 2 g, citrate pH 6.75, 7 days 0° C., in 100 mL water, 10 mL + gentamicin sulfate 16 mg, room temperature, Time 2 h
  amount of component as percentage with respect to the amount at the initial time: 90.78%
Example 14: freeze-dried cefoperazone sodium 4 g, sulbactam sodium 2 g, citrate pH 6.75, 7 days 0° C., in 100 mL water, 10 mL + gentamicin sulfate 16 mg, room temperature, Time 4 h
  amount of component as percentage with respect to the amount at the initial time: 88.38* %
Example 14: freeze-dried cefoperazone sodium 4 g, sulbactam sodium 2 g, citrate pH 6.75, 7 days 0° C., in 100 mL water, 10 mL + gentamicin sulfate 16 mg, room temperature, Time 6 h
  amount of component as percentage with respect to the amount at the initial time: 86.86* %
Example 15: freeze-dried cefoperazone sodium 4 g, sulbactam sodium 4 g, citrate pH 6.75, 7 days 0° C., in 100 mL water, 10 mL + gentamicin sulfate 16 mg, room temperature, Time 0 h
  amount of component as percentage with respect to the amount at the initial time: 99.50%
Example 15: freeze-dried cefoperazone sodium 4 g, sulbactam sodium 4 g, citrate pH 6.75, 7 days 0° C., in 100 mL water, 10 mL + gentamicin sulfate 16 mg, room temperature, Time 1 h
  amount of component as percentage with respect to the amount at the initial time: 96.28%
Example 15: freeze-dried cefoperazone sodium 4 g, sulbactam sodium 4 g, citrate pH 6.75, 7 days 0° C., in 100 mL water, 10 mL + gentamicin sulfate 16 mg, room temperature, Time 2 h
  amount of component as percentage with respect to the amount at the initial time: 102.5%
Example 15: freeze-dried cefoperazone sodium 4 g, sulbactam sodium 4 g, citrate pH 6.75, 7 days 0° C., in 100 mL water, 10 mL + gentamicin sulfate 16 mg, room temperature, Time 4 h
  amount of component as percentage with respect to the amount at the initial time: 95.78* %
Example 15: freeze-dried cefoperazone sodium 4 g, sulbactam sodium 4 g, citrate pH 6.75, 7 days 0° C., in 100 mL water, 10 mL + gentamicin sulfate 16 mg, room temperature, Time 6 h
  amount of component as percentage with respect to the amount at the initial time: 70.74* %
Example 17: freeze-dried cefoperazone sodium 4 g, sulbactam sodium 1 g, citrate pH 6.75, 7 days 0° C., in 100 mL water, 10 mL + amikacin sulfate 40 mg, room temperature, Time 0 h
  amount of component as percentage with respect to the amount at the initial time: 105.6%
Example 17: freeze-dried cefoperazone sodium 4 g, sulbactam sodium 1 g, citrate pH 6.75, 7 days 0° C., in 100 mL water, 10 mL + amikacin sulfate 40 mg, room temperature, Time 1 h
  amount of component as percentage with respect to the amount at the initial time: 112.2%
Example 17: freeze-dried cefoperazone sodium 4 g, sulbactam sodium 1 g, citrate pH 6.75, 7 days 0° C., in 100 mL water, 10 mL + amikacin sulfate 40 mg, room temperature, Time 2 h
  amount of component as percentage with respect to the amount at the initial time: 112.6%
Example 17: freeze-dried cefoperazone sodium 4 g, sulbactam sodium 1 g, citrate pH 6.75, 7 days 0° C., in 100 mL water, 10 mL + amikacin sulfate 40 mg, room temperature, Time 4 h
  amount of component as percentage with respect to the amount at the initial time: 118.5%
Example 17: freeze-dried cefoperazone sodium 4 g, sulbactam sodium 1 g, citrate pH 6.75, 7 days 0° C., in 100 mL water, 10 mL + amikacin sulfate 40 mg, room temperature, Time 6 h
  amount of component as percentage with respect to the amount at the initial time: 123.3%
Example 17: freeze-dried cefoperazone sodium 4 g, sulbactam sodium 1 g, citrate pH 6.75, 7 days 0° C., in 100 mL water, 10 mL + amikacin sulfate 40 mg, room temperature, Time 8 h
  amount of component as percentage with respect to the amount at the initial time: 127.1%
Example 19: ceftriaxone sodium 2 g, sulbactam sodium 2 g, gentamicin sulfate 160 mg, citrate pH 6.75, 200 mL water, room temperature, Time 0 h
  amount of component as percentage with respect to the amount at the initial time: 96.84%
Example 19: ceftriaxone sodium 2 g, sulbactam sodium 2 g, gentamicin sulfate 160 mg, citrate pH 6.75, 200 mL water, room temperature, Time 1 h
  amount of component as percentage with respect to the amount at the initial time: 94.43%
Example 19: ceftriaxone sodium 2 g, sulbactam sodium 2 g, gentamicin sulfate 160 mg, citrate pH 6.75, 200 mL water, room temperature, Time 2 h
  amount of component as percentage with respect to the amount at the initial time: 93.35%
Example 19: ceftriaxone sodium 2 g, sulbactam sodium 2 g, gentamicin sulfate 160 mg, citrate pH 6.75, 200 mL water, room temperature, Time 4 h
  amount of component as percentage with respect to the amount at the initial time: 93.23%
Example 19: ceftriaxone sodium 2 g, sulbactam sodium 2 g, gentamicin sulfate 160 mg, citrate pH 6.75, 200 mL water, room temperature, Time 6 h
  amount of component as percentage with respect to the amount at the initial time: 92.13%
Example 19: ceftriaxone sodium 2 g, sulbactam sodium 2 g, gentamicin sulfate 160 mg, citrate pH 6.75, 200 mL water, room temperature, Time 8 h
  amount of component as percentage with respect to the amount at the initial time: 93.38%
